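Tested at 5 concentrations; 48 h exposure; 96-well plates; endpoints linearly interpolated, else capped at highest concentration. The concentration for 50% growth inhibition is given as GI50.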 The source made the active and inactive calls. Cut-off read from the data, not from the text of the source: active = GI50 up to about 1.1 µM and inactive = higher.
Legend:
Assay in all cases: NCI tumour cell line growth inhibition, 48 h
SW-620 = tested on: SW-620
MCF7 = tested on: MCF7
HCT-116 = tested on: HCT-116
SK-MEL-28 = tested on: SK-MEL-28
SF-268 = tested on: SF-268
K562 = tested on: K562
CCRF-CEM = tested on: CCRF-CEM
T47D = tested on: T47D
SK-MEL-5 = tested on: SK-MEL-5
ACHN = tested on: ACHN
MDA-MB-435 = tested on: MDA-MB-435
SNB-75 = tested on: SNB-75
HOP-62 = tested on: HOP-62
RPMI-8226 = tested on: RPMI-8226
BT-549 = tested on: BT-549
CAKI-1 = tested on: CAKI-1
SK-MEL-2 = tested on: SK-MEL-2
SNB-19 = tested on: SNB-19
NCI-H522 = tested on: NCI-H522
DU-145 = tested on: DU-145
MOLT-4 = tested on: MOLT-4
NCI-H460 = tested on: NCI-H460
OVCAR-5 = tested on: OVCAR-5
OVCAR-8 = tested on: OVCAR-8
SF-295 = tested on: SF-295
Hs-578T = tested on: Hs-578T
MDA-MB-231 = tested on: MDA-MB-231
LOX IMVI = tested on: LOX IMVI
HCC 2998 = tested on: HCC 2998
Malme-3M = tested on: Malme-3M
EKVX = tested on: EKVX
OVCAR-3 = tested on: OVCAR-3
SR = tested on: SR
MDA-N = tested on: MDA-N
SK-OV-3 = tested on: SK-OV-3
M14 = tested on: M14
KM12 = tested on: KM12
SN12C = tested on: SN12C
U-251 = tested on: U-251
HCT-15 = tested on: HCT-15
786-0 = tested on: 786-0
PC-3 = tested on: PC-3
UACC-62 = tested on: UACC-62
SF-539 = tested on: SF-539
HL-60 = tested on: HL-60
UACC-257 = tested on: UACC-257
A498 = tested on: A498
UO-31 = tested on: UO-31
OVCAR-4 = tested on: OVCAR-4
HT-29 = tested on: HT-29
TK-10 = tested on: TK-10
HOP-92 = tested on: HOP-92
IGROV-1 = tested on: IGROV-1
NCI-H226 = tested on: NCI-H226
COLO 205 = tested on: COLO 205
NCI-H23 = tested on: NCI-H23
NCI/ADR-RES = tested on: NCI/ADR-RES
A549 = tested on: A549

## [N-]=[N+]=NCC1OCC(O)C(OCc2ccccc2)C1OCc1ccccc1 (stereo unspecified)
SW-620
  GI50: > 100 µM (inactive)
MCF7
  GI50: > 100 µM (inactive)
HCT-116
  GI50: 95.9 µM (inactive)
SK-MEL-28
  GI50: > 100 µM (inactive)
SF-268
  GI50: > 100 µM (inactive)
K562
  GI50: 51.4 µM (inactive)
CCRF-CEM
  GI50: 83.4 µM (inactive)
T47D
  GI50: 25.1 µM (inactive)
SK-MEL-5
  GI50: 95.9 µM (inactive)
ACHN
  GI50: > 100 µM (inactive)
MDA-MB-435
  GI50: > 100 µM (inactive)
SNB-75
  GI50: 20.5 µM (inactive)
HOP-62
  GI50: > 100 µM (inactive)
RPMI-8226
  GI50: > 100 µM (inactive)
BT-549
  GI50: 28.9 µM (inactive)
CAKI-1
  GI50: > 100 µM (inactive)
SK-MEL-2
  GI50: 39.4 µM (inactive)
SNB-19
  GI50: > 100 µM (inactive)
NCI-H522
  GI50: 70 µM (inactive)
DU-145
  GI50: 86.7 µM (inactive)
MOLT-4
  GI50: 37.1 µM (inactive)
NCI-H460
  GI50: 48.2 µM (inactive)
OVCAR-5
  GI50: > 100 µM (inactive)
OVCAR-8
  GI50: > 100 µM (inactive)
SF-295
  GI50: 79.3 µM (inactive)
Hs-578T
  GI50: > 100 µM (inactive)
MDA-MB-231
  GI50: > 100 µM (inactive)
LOX IMVI
  GI50: > 100 µM (inactive)
HCC 2998
  GI50: 72.8 µM (inactive)
Malme-3M
  GI50: > 10 µM (inactive)
EKVX
  GI50: 48.4 µM (inactive)
OVCAR-3
  GI50: > 100 µM (inactive)
SR
  GI50: 57.1 µM (inactive)
MDA-N
  GI50: > 100 µM (inactive)
SK-OV-3
  GI50: > 100 µM (inactive)
M14
  GI50: > 100 µM (inactive)
KM12
  GI50: 41 µM (inactive)
SN12C
  GI50: > 100 µM (inactive)
U-251
  GI50: > 100 µM (inactive)
HCT-15
  GI50: 61 µM
786-0
  GI50: 81.5 µM (inactive)
PC-3
  GI50: 73.1 µM (inactive)
UACC-62
  GI50: 31.9 µM (inactive)
SF-539
  GI50: > 100 µM (inactive)
HL-60
  GI50: 70.6 µM (inactive)
UACC-257
  GI50: 66.8 µM (inactive)
A498
  GI50: > 100 µM (inactive)
UO-31
  GI50: 65.2 µM (inactive)
OVCAR-4
  GI50: > 100 µM (inactive)
HT-29
  GI50: 36.3 µM (inactive)
TK-10
  GI50: > 100 µM (inactive)
HOP-92
  GI50: 65.3 µM (inactive)
IGROV-1
  GI50: 79.3 µM (inactive)
NCI-H226
  GI50: 55 µM (inactive)
COLO 205
  GI50: > 100 µM (inactive)
NCI-H23
  GI50: > 100 µM (inactive)
NCI/ADR-RES
  GI50: > 100 µM (inactive)
A549
  GI50: 70 µM (inactive)

## O=C(O)CN(CC(=O)O)C1CCCCC1N1CC(=O)OC(=O)C1 (stereo unspecified)
SW-620
  GI50: 42.6 µM (inactive)
MCF7
  GI50: 69.3 µM (inactive)
HCT-116
  GI50: > 100 µM (inactive)
SK-MEL-28
  GI50: > 100 µM (inactive)
SF-268
  GI50: 61.7 µM (inactive)
K562
  GI50: 71.8 µM (inactive)
CCRF-CEM
  GI50: > 100 µM (inactive)
T47D
  GI50: 51.3 µM (inactive)
SK-MEL-5
  GI50: > 100 µM (inactive)
ACHN
  GI50: > 100 µM (inactive)
MDA-MB-435
  GI50: > 100 µM (inactive)
SNB-75
  GI50: 17.2 µM (inactive)
HOP-62
  GI50: > 100 µM (inactive)
RPMI-8226
  GI50: > 100 µM (inactive)
BT-549
  GI50: > 100 µM (inactive)
CAKI-1
  GI50: > 100 µM (inactive)
SK-MEL-2
  GI50: > 100 µM (inactive)
SNB-19
  GI50: > 100 µM (inactive)
NCI-H522
  GI50: > 100 µM (inactive)
DU-145
  GI50: > 100 µM (inactive)
MOLT-4
  GI50: > 100 µM (inactive)
NCI-H460
  GI50: > 100 µM (inactive)
OVCAR-5
  GI50: > 100 µM (inactive)
OVCAR-8
  GI50: > 100 µM (inactive)
SF-295
  GI50: > 100 µM (inactive)
Hs-578T
  GI50: 47.1 µM (inactive)
MDA-MB-231
  GI50: > 100 µM (inactive)
LOX IMVI
  GI50: > 100 µM (inactive)
HCC 2998
  GI50: 74.3 µM (inactive)
Malme-3M
  GI50: 10.3 µM (inactive)
EKVX
  GI50: > 100 µM (inactive)
OVCAR-3
  GI50: > 100 µM (inactive)
SR
  GI50: 71.4 µM (inactive)
MDA-N
  GI50: > 100 µM (inactive)
SK-OV-3
  GI50: > 100 µM (inactive)
M14
  GI50: > 100 µM (inactive)
KM12
  GI50: > 100 µM (inactive)
SN12C
  GI50: > 100 µM (inactive)
U-251
  GI50: 43.4 µM (inactive)
HCT-15
  GI50: 95.9 µM
786-0
  GI50: > 100 µM (inactive)
PC-3
  GI50: > 100 µM (inactive)
UACC-62
  GI50: > 100 µM (inactive)
SF-539
  GI50: > 100 µM (inactive)
HL-60
  GI50: > 100 µM (inactive)
UACC-257
  GI50: > 100 µM (inactive)
A498
  GI50: > 100 µM (inactive)
UO-31
  GI50: > 100 µM (inactive)
OVCAR-4
  GI50: > 100 µM (inactive)
HT-29
  GI50: 38.4 µM (inactive)
TK-10
  GI50: > 100 µM (inactive)
HOP-92
  GI50: > 100 µM (inactive)
IGROV-1
  GI50: 49.1 µM (inactive)
NCI-H226
  GI50: > 100 µM (inactive)
COLO 205
  GI50: > 100 µM (inactive)
NCI-H23
  GI50: > 100 µM (inactive)
NCI/ADR-RES
  GI50: > 100 µM (inactive)
A549
  GI50: > 100 µM (inactive)
